Calls of active or inactive are those of the source. How the calls were made is not given here.
Test system: rodent lifetime carcinogenesis bioassay, tumor incidence TD50
Assay: carcinogenic potency in animals, long-term in vivo studies, CPDB compilation (AID 1745844)

Compound: Cn1cc(C(=O)O)c(=O)c2ccc(/C=C/c3ccc([N+](=O)[O-])o3)nc21
- TD50 (mouse, strain ICR/Jcl, both sexes, in feed, site: forestomach, lesion: squamous-cell carcinoma, dosed 54 weeks, study length 54 weeks): 10.3 mg/kg/day
- TD50 (mouse, strain ICR/Jcl, both sexes, in feed, site: lung, lesion: adenoma, dosed 54 weeks, study length 54 weeks): 8.03 mg/kg/day
- TD50 (mouse, strain ICR/Jcl, both sexes, in feed, site: lung, lesion: carcinoma, dosed 54 weeks, study length 54 weeks): 21.9 mg/kg/day
- TD50 (mouse, strain ICR/Jcl, both sexes, in feed, site: thymus gland, lesion: lymphatic leukemia, dosed 54 weeks, study length 54 weeks): 26.5 mg/kg/day

Compound: CCOCCc1c(-c2ccccc2)nc(N)n2ncnc12
- TD50 (rat, strain Charles River CD (Sprague-Dawley), females, in feed, site: liver, lesion: hepatocellular adenoma, dosed 97 weeks, study length 105 weeks): 307 mg/kg/day
- TD50 (rat, strain Charles River CD (Sprague-Dawley), females, in feed, site: liver, lesion: hepatocellular carcinoma, dosed 97 weeks, study length 105 weeks): 646 mg/kg/day
- TD50 (rat, strain Charles River CD (Sprague-Dawley), females, in feed, site: mammary gland, lesion: adenoma, dosed 97 weeks, study length 105 weeks): 3010 mg/kg/day
- TD50 (rat, strain Charles River CD (Sprague-Dawley), females, in feed, site: mammary gland, lesion: carcinoma, dosed 97 weeks, study length 105 weeks): 669 mg/kg/day
- TD50 (rat, strain Charles River CD (Sprague-Dawley), females, in feed, site: thyroid gland, lesion: adenoma, dosed 97 weeks, study length 105 weeks): 9710 mg/kg/day
- TD50 (rat, strain Charles River CD (Sprague-Dawley), males, in feed, site: liver, lesion: hepatocellular adenoma, dosed 97 weeks, study length 105 weeks): 2530 mg/kg/day
- TD50 (rat, strain Charles River CD (Sprague-Dawley), males, in feed, site: liver, lesion: hepatocellular carcinoma, dosed 97 weeks, study length 105 weeks): 4160 mg/kg/day
- TD50 (rat, strain Charles River CD (Sprague-Dawley), males, in feed, site: thyroid gland, lesion: adenoma, dosed 97 weeks, study length 105 weeks): 11000 mg/kg/day
- TD50 (rat, strain Charles River CD (Sprague-Dawley), males, in feed, site: thyroid gland, lesion: carcinoma, dosed 97 weeks, study length 105 weeks): 12400 mg/kg/day

Compound: [Cl][Fe]([Cl])[Cl]
- TD50 (rat, strain F344/DuCrj, females, in drinking water, site: any site (literature study), lesion: one or several types, types not named, dosed 104 weeks, study length 112 weeks): 505 mg/kg/day (inactive)
- carcinogen call (rat, strain F344/DuCrj, females, in drinking water, site: liver, lesion: neoplastic nodule, dosed 104 weeks, study length 112 weeks): negative (inactive)
- carcinogen call (rat, strain F344/DuCrj, males, in drinking water, site: any site (literature study), lesion: one or several types, types not named, dosed 104 weeks, study length 112 weeks): negative (inactive)
- TD50 (rat, strain F344/DuCrj, males, in drinking water, site: liver, lesion: neoplastic nodule, dosed 104 weeks, study length 112 weeks): 8810 mg/kg/day (inactive)

Compound: CC(=O)Nc1ccc2c(c1)Cc1cc(NC(C)=O)ccc1-2
- TD50 (monkey, strain Cynomolgus [Macaca fascicularis], both sexes, in feed, site: breast, lesion: carcinoma, dosed 258 weeks, study length 1513 weeks): 307 mg/kg/day
- TD50 (monkey, strain Cynomolgus [Macaca fascicularis], both sexes, in feed, site: lung, lesion: alveolar/bronchiolar carcinoma, dosed 258 weeks, study length 1513 weeks): 25.6 mg/kg/day

Compound: CC(Cc1ccccc1)NN (stereo unspecified)
- carcinogen call (mouse, strain Swiss albino, females, in drinking water, site: liver, lesion: hepatoma, dosed 119 weeks, study length 127 weeks): negative (inactive)
- carcinogen call (mouse, strain Swiss albino, females, in drinking water, site: lung, lesion: one or several types, types not named, dosed 119 weeks, study length 127 weeks): negative (inactive)
- carcinogen call (mouse, strain Swiss albino, males, in drinking water, site: liver, lesion: hepatoma, dosed 100 weeks, study length 112 weeks): negative (inactive)
- carcinogen call (mouse, strain Swiss albino, males, in drinking water, site: lung, lesion: one or several types, types not named, dosed 100 weeks, study length 112 weeks): negative (inactive)

Compound: CCS(=O)(=O)c1ccc(S(N)(=O)=O)c2ccccc12
- TD50 (mouse, strain A x IF, females, in feed, site: lung, lesion: adenoma, dosed 100 weeks, study length 100 weeks): 53.4 mg/kg/day
- TD50 (mouse, strain A x IF, females, in feed, site: urinary bladder, lesion: carcinoma, dosed 100 weeks, study length 100 weeks): 34.2 mg/kg/day
- TD50 (mouse, strain IF x C57, females, in feed, site: urinary bladder, lesion: carcinoma, dosed 92 weeks, study length 92 weeks): 15.3 mg/kg/day

Reference: PubChem BioAssay AID1745844 (Carcinogenic Potency Database (CPDB), 2022)
